Patent US8088815B2, “Spiroindolinone pyrrolidines” (Hoffman-La Roche Inc., priority 2009, dated 2012)
pIC50: −log10 of the molar value.

Biological target: interaction between p53 and MDM2 proteins (Homo sapiens, UniProt Q00987)
Experiment: HTRF assay of inhibition of the p53-MDM2 interaction (GST-MDM2 / biotinylated p53 peptide)
Type: binding
Conditions: recombinant GST-tagged MDM2 and biotinylated p53 peptide, bsa:0.02%

Chain of interaction between p53 and MDM2 proteins (Q00987 whole entry): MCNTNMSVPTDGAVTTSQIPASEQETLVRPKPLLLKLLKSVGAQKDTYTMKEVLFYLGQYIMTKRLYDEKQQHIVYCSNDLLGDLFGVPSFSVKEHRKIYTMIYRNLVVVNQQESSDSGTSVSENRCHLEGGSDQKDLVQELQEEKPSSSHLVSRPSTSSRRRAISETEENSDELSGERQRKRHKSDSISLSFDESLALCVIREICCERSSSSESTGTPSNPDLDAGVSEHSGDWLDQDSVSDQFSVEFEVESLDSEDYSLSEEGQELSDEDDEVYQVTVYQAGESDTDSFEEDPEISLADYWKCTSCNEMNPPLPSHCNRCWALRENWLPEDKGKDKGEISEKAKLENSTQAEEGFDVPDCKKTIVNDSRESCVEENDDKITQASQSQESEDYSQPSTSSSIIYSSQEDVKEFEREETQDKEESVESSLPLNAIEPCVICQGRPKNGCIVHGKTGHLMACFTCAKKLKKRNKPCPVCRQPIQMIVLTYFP

| pIC50 | Compound |
| --- | --- |
| 8.30 | COc1cc(CC(=O)O)ccc1NC(=O)[C@@H]1N[C@@H](CC(C)(C)C)[C@@]2(C(=O)Nc3cc(Cl)ccc32)[C@H]1c1cccc(Cl)c1F [Example 160, chiral (4-{[(2′S,3′R,4′S,5′R)-6-chloro-4′-(3-chloro-2-fluoro-phenyl)-2′-(2,2-dimethyl-propyl)-2-oxo-1,2-dihydro-spiro[indole-3,3′-pyrrolidine]-5′-carbonyl]-amino}-3-methoxy-phenyl)-acetic acid] |
| 8.40 | COc1cc(CC(N)=O)ccc1NC(=O)[C@@H]1N[C@@H](CC(C)(C)C)[C@@]2(C(=O)Nc3cc(Cl)ccc32)[C@H]1c1cccc(Cl)c1F [Example 161, chiral (2′S,3′R,4′S,5′R)-6-chloro-4′-(3-chloro-2-fluoro-phenyl)-2′-(2,2-dimethyl-propyl)-2-oxo-1,2-dihydro-spiro[indole-3,3′-pyrrolidine]-5′-carboxylic acid (4-carbamoylmethyl-2-methoxy-phenyl)-amide] |
| 8.30 | COc1cc(C(=O)O)c(F)cc1NC(=O)[C@@H]1N[C@@H](CC(C)(C)C)[C@@]2(C(=O)Nc3cc(Cl)ccc32)[C@H]1c1cccc(Cl)c1F [Example 221, chiral 4-{[(2′S,3′R,4′S,5′R)-6-chloro-4′-(3-chloro-2-fluoro-phenyl)-2′-(2,2-dimethyl-propyl)-2-oxo-1,2-dihydro-spiro[indole-3,3′-pyrrolidine]-5′-carbonyl]amino}-2-fluoro-5-methoxy-benzoic acid] |
| 8.15 | COc1cc(C(=O)NC#N)ccc1NC(=O)[C@@H]1N[C@@H](CC(C)(C)C)[C@@]2(C(=O)Nc3cc(Cl)ccc32)[C@H]1c1cccc(Cl)c1F [Example 223, chiral (2′S,3′R,4′S,5′R)-6-chloro-4′-(3-chloro-2-fluorophenyl)-N-(4-(cyanocarbamoyl)-2-methoxyphenyl)-2′-(2,2-dimethyl-propyl)-2-oxospiro[indoline-3,3′-pyrrolidine]-5′-carboxamide] |

The next lines start with the compound.

| Compound | pIC50 |
| --- | --- |
| COc1cc(OC2CCOCC2)ccc1NC(=O)[C@@H]1N[C@@H](CC(C)(C)C)[C@@]2(C(=O)Nc3cc(Cl)ccc32)[C@H]1c1cccc(Cl)c1F [Example 157, chiral (2′S,3′R,4′S,5′R)-6-chloro-4′-(3-chloro-2-fluoro-phenyl)-2′-(2,2-dimethyl-propyl)-2-oxo-1,2-dihydro-spiro[indole-3,3′-pyrrolidine]-5′-carboxylic acid [2-methoxy-4-(tetrahydro-pyran-4-yloxy)-phenyl]-amide] | 8.00 |
| COc1cc(CC(=O)OC(C)(C)C)ccc1NC(=O)[C@@H]1N[C@@H](CC(C)(C)C)[C@@]2(C(=O)Nc3cc(Cl)ccc32)[C@H]1c1cccc(Cl)c1F [Example 159, chiral (4-{[(2′S,3′R,4′S,5′R)-6-chloro-4′-(3-chloro-2-fluoro-phenyl)-2′-(2,2-dimethyl-propyl)-2-oxo-1,2-dihydro-spiro[indole-3,3′-pyrrolidine]-5′-carbonyl]amino}-3-methoxy-phenyl)-acetic acid tert-butyl ester] | 7.85 |
| COc1cc(OCCSC)ccc1NC(=O)[C@@H]1N[C@@H](CC(C)(C)C)[C@@]2(C(=O)Nc3cc(Cl)ccc32)[C@H]1c1cccc(Cl)c1F [Example 169, chiral (2′S,3′R,4′S,5′R)-6-chloro-4′-(3-chloro-2-fluoro-phenyl)-2′-(2,2-dimethyl-propyl)-2-oxo-1,2-dihydro-spiro[indole-3,3′-pyrrolidine]-5′-carboxylic acid [2-methoxy-4-(2-methylsulfanyl-ethoxy)-phenyl]-amide] | 7.96 |
| COc1cc(OCCS(C)(=O)=O)ccc1NC(=O)[C@@H]1N[C@@H](CC(C)(C)C)[C@@]2(C(=O)Nc3cc(Cl)ccc32)[C@H]1c1cccc(Cl)c1F [Example 170, chiral (2′S,3′R,4′S,5′R)-6-chloro-4′-(3-chloro-2-fluoro-phenyl)-2′-(2,2-dimethyl-propyl)-2-oxo-1,2-dihydro-spiro[indole-3,3′-pyrrolidine]-5′-carboxylic acid [4-(2-methanesulfonyl-ethoxy)-2-methoxy-phenyl]-amide] | 8.15 |
| COc1cc(OCCCS(C)(=O)=O)ccc1NC(=O)[C@@H]1N[C@@H](CC(C)(C)C)[C@@]2(C(=O)Nc3cc(Cl)ccc32)[C@H]1c1cccc(Cl)c1F [Example 181, chiral (2′S,3′R,4′S,5′R)-6-chloro-4′-(3-chloro-2-fluoro-phenyl)-2′-(2,2-dimethyl-propyl)-2-oxo-1,2-dihydro-spiro[indole-3,3′-pyrrolidine]-5′-carboxylic acid [4-(3-methanesulfonyl-propoxy)-2-methoxy-phenyl]-amide] | 8.22 |
| CC(C)(C)C[C@@H]1N[C@@H](C(=O)Nc2ccc(CCC(=O)O)cc2)[C@H](c2cccc(Cl)c2F)[C@]12C(=O)Nc1cc(Cl)ccc12 [Example 222, chiral 3-(4-{[(2′S,3′R,4′S,5′R)-6-chloro-4′-(3-chloro-2-fluoro-phenyl)-2′-(2,2-dimethyl-propyl)-2-oxo-1,2-dihydro-spiro[indole-3,3′-pyrrolidine]-5′-carbonyl]-amino}-phenyl)-propionic acid] | 8.30 |
| rac-4-{[(2′S,3′R,4′R,5′R)-6-chloro-4′-(3-chloro-4-fluoro-phenyl)-2′-(2,2-dimethyl-propyl)-2-oxo-1,2-dihydro-spiro[indole-3,3′-pyrrolidine]-5′-carbonyl]-amino}-3-methoxy-benzoic acid [Example 127] | 7.92 |
